Results from BigSolDB 2.1.

O=C(O)c1cccc(O)c1
solubility (mole fraction)
Conditions	278.15 K	283.15 K	288.15 K	293.15 K	298.15 K	303.15 K	308.15 K	313.15 K	318.15 K	323.15 K
in acetone	0.101	0.107	0.111	0.116	0.122	0.128	0.134	0.142	0.151	0.159
in acetonitrile	0.00646	0.00759	0.0103	0.0116	0.0132	0.0155	0.017	0.0199	0.0228	0.0262
in ethanol	0.0936	0.0968	0.101	0.106	0.112	0.116	0.121	0.127	0.134	0.147
in ethyl acetate	0.0377	0.041	0.0441	0.0486	0.0534	0.0565	0.0607	0.0682	0.0742	0.0764
in ethylene glycol	0.0804	0.0829	0.0847	0.0883	0.0959	0.102	0.109	0.116	0.124	0.136
in isopropanol	0.0984	0.104	0.109	0.114	0.121	0.127	0.134	0.14	0.148	0.155
in isopropyl acetate	0.0305	0.0337	0.0365	0.0383	0.043	0.0465	0.0507	0.0552	0.059	0.0618
in methanol	0.0815	0.0856	0.0895	0.0943	0.0995	0.105	0.11	0.117	0.124	0.13
in methyl acetate	0.0388	0.0435	0.048	0.0502	0.0549	0.0577	0.0631	0.0691	0.0764	0.0808
in n-butanol	0.0772	0.0831	0.0857	0.0919	0.0957	0.102	0.109	0.115	0.12	0.125
in n-butyl acetate	0.0361	0.0397	0.043	0.0459	0.0486	0.0526	0.0564	0.0611	0.0661	0.0693
in n-pentanol	0.0774	0.0815	0.0852	0.0902	0.0951	0.101	0.106	0.113	0.118	0.125
in n-propanol	0.0827	0.0878	0.0949	0.0975	0.101	0.108	0.114	0.121	0.128	0.133
in n-propyl acetate	0.0379	0.0434	0.0449	0.047	0.0513	0.0569	0.061	0.0651	0.0711	0.0769
